Measurements taken from patent publication US20170115276A1, “SPECIFIC MODULATORS OF CONNEXIN HEMICHANNELS” (PONTIFICIA UNIVERSIDAD CATÓLICA DE CHILE, priority 2014, published 2017).

What was measured:
[1] = tested on: hemichannels formed by connexins (26 or 43); test: In vitro test of blocking the opening/activation of hemichannels; permeability tracer (ethidium) uptake in transfected HeLa cells; assay type: cell-based, Mouse; conditions: for % Inhibition Hemichannel activity (Cx26 o 43): inhibition of the permeability tracer at a concentration of 5 μM, HeLa cells transfected with connexins 26 or 43
Method: The compounds are tested in experiments based on cells that are deficient in the expression of hemichannels and transfected with different connexins in order to evaluate and/or confirm their capacity of modulating the transport through the cellular membrane. The transport of permeability tracing molecules is evaluated and compared with the inhibitors of channels formed by connexins known, such as beta glycyrrhetinic acid (BGA) and carbenoxolone (CBX).
(§1) The cells are incubated in an extracellular medium without divalent cations in order to increase the opening probability of hemichannels formed by connexins. In addition, as negative control parental cells not expressing hemichannels and cells transfected with panexine 1 and mechanically stimulated to induce the opening of the hemichannels formed by panexine 1.
In vitro test of blocking the opening/activation of hemichannels formed by connexins (26 or 43).
The capacity of the different tracing molecules was tested in vitro to evaluate the capacity of the compounds of reducing the transport of these molecules using the HeLa cells transfected with connexins 26 or 43.
(§2) […] HeLa cells transfected with connexins 26 or 43 are used. In order to evaluate the activity of each compound over the connexin hemichannels, 10^3 HeLa cells transfected with connexins are shown by well in multi-well ([…]) plates 24 h before each experiment. Then, the cells are washed in a Locke solution that contains normal levels of divalent cations (Ca^2+ and Mg^2+) or a cation-free divalent Locke solution that contains 5 μm of ethidium bromide. Parallel to this, the cells are treated with different concentrations of each candidate compound and incubated for 5 min.
(§3) As indicated by the scheme of FIG. 2, the HeLa cells transfected with connexin 43 (Cx43) are shown in multi-well (96) plates and after 24 h the ethidium uptake is evaluated in the presence of cation free solution (DCFS) in the presence or absence of the compound in question. The ethidium uptake is evaluated as the fluorescence emitted measured with a fluorometer. If the value of fluorescence in the presence of the inhibitor is equal or close to that measured in cells bathed with a solution that contains divalent cations, the compound corresponds to an inhibitor of hemichannels formed by connexins. On the contrary, if the fluorescence value emitted by cells exposed to a possible inhibitor in DCFS is equal to that of cells bathed only with DCFS (without the compound in question), the compound is not an inhibitor of hemichannels formed by connexins. The same test is performed with different concentrations of each compound in order to determine the minimum effective concentration (EC50).

[2] = target: T1, gap junction channels formed by connexin 43 (Mus musculus, UniProt P23242); test: Cellular coupling assessed with the transfer of ethidium in HeLa-Cx43 cells; assay type: cell-based; conditions: for effect on gap junction channels (in words): connexin isoform and concentration not stated
T1 construct: expressed in transfected cells; host or cells: HeLa
T1 sequence (P23242 whole entry, canonical isoform): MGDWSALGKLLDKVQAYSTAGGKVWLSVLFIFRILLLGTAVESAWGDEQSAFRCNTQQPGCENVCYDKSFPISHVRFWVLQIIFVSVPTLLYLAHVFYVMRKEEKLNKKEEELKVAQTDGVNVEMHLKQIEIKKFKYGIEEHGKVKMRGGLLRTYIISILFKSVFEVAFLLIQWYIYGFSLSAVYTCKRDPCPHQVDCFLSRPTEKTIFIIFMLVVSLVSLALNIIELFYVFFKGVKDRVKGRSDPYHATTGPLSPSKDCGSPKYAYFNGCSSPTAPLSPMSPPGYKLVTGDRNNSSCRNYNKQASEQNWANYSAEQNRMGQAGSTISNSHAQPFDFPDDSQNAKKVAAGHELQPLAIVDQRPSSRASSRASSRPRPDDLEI
Method: FIG. 6. Cellular coupling assessed with the transfer of ethidium. A. Effect of the different inhibitors in HeLa-Cx43 cells (transfected with connexin 43). B. Cellular coupling index.
(§4) The molecules that inhibit the hemichannels formed by connexins are evaluated by their action on the hemichannels formed by panexine 1. The molecules inhibiting the hemichannels formed by connexins in the nanomolar range are studied as possible inhibitors of intercellular binding channels using the coupling technique to dyes and through electrophysiology using double fixing of voltage.

[3] = target: T2, hemichannels formed by panexine 1 (Panx1) (Homo sapiens, UniProt Q96RD7); test: Functional status of panexine 1 hemichannels activated by mechanic stress; assay type: cell-based; conditions: for effect on hemichannels formed by panexines (in words): concentration not given
T2 construct: expressed in transfected cells
T2 sequence (Q96RD7 whole entry, species assumed): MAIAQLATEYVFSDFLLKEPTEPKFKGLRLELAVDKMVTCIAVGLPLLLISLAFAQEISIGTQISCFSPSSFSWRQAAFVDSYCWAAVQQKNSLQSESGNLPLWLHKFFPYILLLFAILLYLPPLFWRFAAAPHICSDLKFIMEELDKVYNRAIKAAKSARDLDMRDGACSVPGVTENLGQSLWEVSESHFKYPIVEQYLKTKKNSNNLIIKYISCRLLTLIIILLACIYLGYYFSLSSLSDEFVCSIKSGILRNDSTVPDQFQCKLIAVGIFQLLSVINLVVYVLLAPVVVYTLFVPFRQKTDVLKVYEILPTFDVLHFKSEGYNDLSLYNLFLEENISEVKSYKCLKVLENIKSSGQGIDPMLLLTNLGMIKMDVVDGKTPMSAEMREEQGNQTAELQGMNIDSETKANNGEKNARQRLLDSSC
Method: FIG. 7. Functional status of the hemichannels formed by panexine1 (Panx1) driven by mechanic stress.
as §1
Therefore, the compound is an inhibitor of hemichannels formed by highly specific conexins.

[4] = target: T3, hemichannels formed by connexin 43 (Mus musculus, UniProt P23242); test: Ethidium uptake in HeLa Cx43-EGFP cells induced by divalent cation free solution (DCFS); assay type: cell-based; conditions: for ethidium uptake speed or rate by minute (dye uptake) induced by DCFS: 10 nM
T3 construct: expressed in transfected cells; host or cells: HeLa
T3 sequence (P23242 whole entry): as the sequence (P23242 whole entry, canonical isoform) above
Method: FIG. 3. Ethidium uptake in HeLa Cx43-EGFP. Effect of DCFS. A: Cells in culture. B: Ethidium uptake chart in HeLa Cx43-EGFP. C: extracelular DCSF induces the inlet of ethidium in Cx43; the effect of DCSF is shown, which was blocked by the inhibiting molecule (MX) (10 nM), (P<0.05, n=4).
as §2
as §3, with “The same test is performed with different concentrations of each compound in order to determine the minimum effective concentration (EC50).” left out
In FIG. 3, the upper left panel (A) corresponds to a phase microphotograph, where the HeLa cells can be noted that express connexin 43 conjugated with green fluorescent protein (EGFP) present in the microscopic field. […] Clearly, the inhibiting molecule inhibits the activity of hemichannels evaluated as dye uptake.

[5] = target: T3, hemichannels formed by connexin 43; test: Unit currents of hemichannels in HeLa cells bathed in saline solution without Ca2+; assay type: cell-based; conditions: 10 nM
Source text: FIG. 4. Unit streams of the hemichannels formed by connexin 43 in HeLa cells bathed in saline solution without calcium ion (or Ca^2+) and in the presence of EGTA.
Should the molecules not inhibit the intercellular channels formed by connexins in the millimolar range and not affect the hemichannels formed by panexine 1, its inhibiting effect of currents of hemichannels formed by connexins using the voltage fixing methodology in the modality of full cell.
The unit currents of the hemichannels formed by connexin 43 are very frequent in the HeLa cells bathed with a saline solution without the calcium ion (or Ca^2+) (see FIG. 4, the two upper tracings).

[6] = target: T4, gap junction channels formed by connexin 26 (Mus musculus, UniProt Q00977); test: Incidence of cellular coupling evaluated with microinjections of Lucifer yellow; assay type: cell-based; conditions: 1 nM; Lucifer yellow microinjection
T4 construct: expressed in transfected cells; host or cells: HeLa
Method: FIG. 5. Incidence percentage of coupling according to the time.
as §4
FIG. 5 depicts that the cells transfected with connexin 26 are very well coupled to gap junction channels. The incidence of the cellular coupling evaluated with microinjections of Lucifer yellow is close to 100% (black boxes).

[7] = in vitro hemichannel blocking, connexins 26 or 43

O=C(O[C@@H](C(=O)c1ccc(Cl)cc1)c1ccccc1)c1ccc2ccccc2n1 [Example 1 (A), (R)-2-(4-chlorofenil)-2-oxo-1-fenilethylquinoline-2-carboxylate]
inhibition of hemichannels formed by connexins (in words) [1]: potent inhibitors
% Inhibition Hemichannel activity (Cx26 o 43) [1]: 0%
effect on gap junction channels (in words) [2]: do not affect
effect on hemichannels formed by panexines (in words) [3]: do not affect

Clc1ccc(N2CCN(CCCN3CCN(c4ccc(Cl)cc4)CC3)CC2)cc1 [Example 2 (B), 1,3-bis(4-(4-chlorofenil)piperazin-1-il)propane]
% Inhibition Hemichannel activity (Cx26 o 43) [1]: 20%

O=C(O)C(Oc1ccc(-c2ccccc2)cc1)Oc1ccc(-c2ccccc2)cc1 [Example 3 (C), Acetic 2,2-bis([1,1′-bifenil]-4-iloxi) acid]
% Inhibition Hemichannel activity (Cx26 o 43) [1]: 0%

C[C@]12C[C@@H](F)C(=O)C[C@@H]1CC[C@@H]1[C@@H]2CC[C@]2(C)[C@@H](OC(=O)c3ccccc3)CC[C@@H]12 [Example 4 (D), (2R,5S,8R,9S,10S,13S,14S,17S)-2-fluoro-10,13-dimethyl-3-oxohexadecahydro-1H-ciclopenta[a]fenantren-17-il benzoate]
inhibition of hemichannels formed by connexins (in words) [1]: potent inhibitors
IC50 [1, 7]: 20 nM
efficacy [1, 7]: 100%
% Inhibition Hemichannel activity (Cx26 o 43) [1]: 100%
effect on gap junction channels (in words) [2]: do not affect
effect on hemichannels formed by panexines (in words) [3]: do not affect

CC(=O)O[C@H]1CC[C@@]2(C)[C@@H](CC[C@@H]3[C@@H]2CC[C@]2(C)[C@@H](OC(=O)C4CCCCC4)CC[C@@H]32)C1 [Example 5 (E), (3S,5S,8R,9S,10S,13S,14S,17S)-3-acetoxi-10,13-dimethylhexadecahydro-1H-ciclopenta[a]fenantren-17-il ciclohexanocarboxilate]
efficacy [1, 7]: 100%
% Inhibition Hemichannel activity (Cx26 o 43) [1]: 100%

C#C[C@]1(O)CC[C@H]2[C@@H]3CC=C4C[C@@H](OC(=O)CCC5CCCCC5)CC[C@]4(C)[C@H]3CC[C@@]21C [Example 6 (F), (3S,8R,9S,10R,13S,14S,17R)-17-ethynil-17-hydroxi-10,13-dimethyl-2,3,4,7,8,9,10,11,12,13,14,15,16,17-tetradecahydro-1H-ciclopenta[a]fenantren-3-yl 3-ciclohexilpropanoate]
% Inhibition Hemichannel activity (Cx26 o 43) [1]: 0%

Cc1cc(N2CCOCC2)nc2ccc(Cc3ccc4nc(N5CCOCC5)cc(C)c4c3)cc12 [Example 7 (G), bis(4-methyl-2-morfolinquinoline-6-yl)methane]
% Inhibition Hemichannel activity (Cx26 o 43) [1]: 0%

CC1(C)[C@@H](OC(=O)CCC(=O)O)CC[C@]2(C)[C@H]3C(=O)C=C4[C@@H]5C[C@@](C)(C(=O)O)CC[C@]5(C)CC[C@@]4(C)[C@]3(C)CC[C@@H]12 [carbenoxolone, reference compound]
functional status of Panx1 hemichannels activated by mechanic stress ([3]; 5 μm): totally blocked

O=C(O[C@@H](C(=O)c1ccc(Cl)cc1)c1ccccc1)c1ccc2ccccc2n1 [compound 4, (R)-2-(4-chlorofenil)-2-oxo-1-fenilethlyquinoline-2-caroxilate]
ethidium uptake speed or rate by minute (dye uptake) induced by DCFS [4]: completely inhibited
ethidium uptake speed or rate by minute (dye uptake) induced by DCFS ([4]; listed as MX): blocked
reversal of the inhibition with the washing of DCFS ([4]; after 10 nM): partially reversed
activity (unit currents) of the hemichannels formed by connexin 43 [5]: drastically inhibited
coupling incidence, gap junction channels formed by connexin 26 [6]: does not significantly reduce
cellular coupling mediated with gap junction channels formed by connexin 43 ([2]; 1 nM, ethidium transfer, HeLa-Cx43): does not inhibit
functional status of Panx1 hemichannels activated by mechanic stress ([3]; 100 nM): not inhibited
